The text below walks through data of patent US6962906B2, “Oligonucleotide analogues, methods of synthesis and methods of use” (Active Motif, priority 2000, dated 2005).

Several values for one entry are separate records, joined by “and”; a condition that tells them apart may be missing. Identical values can stand only once.

Common to all, as to format: binding
Assay [1] concerns Target oligonucleotides (SEQ ID NO:33-36). In words: Affinity PAGE capture of target DNA and RNA oligonucleotides, detection with ethidium bromide. The conditions noted are these: electrophoresis at 40° C. The text has this:
A HypNA-pPNA capture probe with the sequence: (Ch-Tp-Gh-Cp-Ah-Ap-Ah-Gp-Gh-Ap-Ch-Ap-Ch-Cp-Ah-Tp)-dG was synthesized coupled to a 5′ acrylamide residue as described in Example 19. The capture probe was co-polymerized with acrylamide as described in Example 18 in slots of an acrylamide gel as described in Rehman et al. (Nucleic Acids Research 27: 649-655 (1999)). Target oligonucleotides having the sequence: • d([…]) (SEQ ID NO:33)—complementary • d([…]) (SEQ ID NO:34)—mismatched • r([…]) (SEQ ID NO:35)—complementary • r([…]) (SEQ ID NO:36)—mismatched were electrophoresed through lanes of the gel at 40° C.
Following electrophoresis, the gel was stained with ethidium bromide and photographed under UV illumination.

The next assay has as its system 16 mer poly A RNA. In words: Melting curve analysis of poly T probes hybridized to poly A RNA. The conditions noted are these: 20 mM Tris, pH 7.5, 100 mM NaCl, 10 mM MgCl2; RNA to PNA oligomer 1:2 for PNA analogues. The text has this:
(§1) In this experiment we compared hybridized complexes of DNA/DNA, DNA/PNAs, RNA/DNA and PNA/PNAs, for the stability of the complex formed. Poly A DNA oligomers, poly T DNA oligomers, poly A RNA oligomers, and poly T RNA oligomers were synthesized by solid phase synthesis. PNA oligonucleotide analogues were synthesized by solid phase synthesis using methods disclosed herein. The classical PNA Poly T oligomer consisted of a PNA having a N-(2-aminoethyl)glycine backbone. […] The 1:2 Poly T PNA consisted of: biotin-linker-(HypNA-pPNA-pPNA)5-dT. The 1:3 Poly T PNA consisted of: biotin-linker-[(HypNA-pPNA)-(pPNA-pPNA)]4-dT.
(§2) To hybridize DNA/DNA and DNA/RNA oligomers, equal amounts of oligonucleotide were mixed in 20 mM Tris, pH 7.5, 100 mM NaCl, 10 mM MgCl2, incubated at 90° C. for 3 minutes and left to cool gradually to room temperature overnight. Samples were then heated at a rate of 1° C. per minute from 20° C. to 100° C., using a spectrophotometer linked to a thermal control unit. Changes in A260 were recorded and a Tm value was calculated for each complex.
(§3) To hybridize PNA oligonucleotide analogues to DNA and RNA oligomers, the ratio of DNA (or RNA) oligomer to PNA oligomer was 1:2. This 1:2 ratio was used to promote the formation of a triplex structure, with 2 PNA oligomers binding to each DNA oligomer.
(§4) These samples were hybridized and treated in a identical manner to the DNA/DNA and DNA/RNA complexes to obtain Tm values.

Another assay concerns 16 mer poly A DNA. In words: Melting curve analysis of poly T probes hybridized to poly A DNA. To be noted: 20 mM Tris, pH 7.5, 100 mM NaCl, 10 mM MgCl2; DNA to PNA oligomer 1:2 for PNA analogues.
Text: as §1, §2, §3, §4

For the substance “(Ch-Tp-Gh-Cp-Ah-Ap-Ah-Gp-Gh-Ap-Ch-Ap-Ch-Cp-Ah-Tp)-dG [capture HypNA-pPNA probe]”, the “capture of complementary target oligonucleotides in the gel (ethidium bromide fluorescence)” value in assay [1] (complementary DNA and RNA targets, lanes 1, 3, and 5) was “ethidium-stained fluorescent hybrids captured by the gel layer”. In assay [1] (single nucleobase mismatched DNA and RNA targets, lanes 2, 4, and 6), the “capture of mismatched target oligonucleotides in the gel (ethidium bromide fluorescence)” value is “did not result in the capture of a target”.
In the case of “biotin-linker-(HypNA-pPNA)7-dT [1:1 Poly T PNA-analog]”, in the assay on 16 mer poly A RNA, the “Target: 16 mer poly A RNA Tm, ° C.” value is 73.0 °C and 72.7 °C. Moreover, the “Target: 16 mer poly A DNA Tm, ° C.” value in the assay with 16 mer poly A DNA is 81.1 °C and 81.9 °C.
Regarding “biotin-linker-(HypNA-pPNA-pPNA)5-dT [1:2 Poly T PNA-analog]”, the “Target: 16 mer poly A RNA Tm, ° C.” value in the assay with 16 mer poly A RNA is 66.1 °C and 66.0 °C. For the same substance, in the assay with 16 mer poly A DNA, the “Target: 16 mer poly A DNA Tm, ° C.” value is 74.4 °C and 74.0 °C.
Regarding “biotin-linker-[(HypNA-pPNA)-(pPNA-pPNA)]4-dT [1:3 Poly T PNA-analog]”, in the assay with 16 mer poly A RNA, the “Target: 16 mer poly A RNA Tm, ° C.” value is 48.9 °C and 47.2 °C. Besides, in the assay on 16 mer poly A DNA, the “Target: 16 mer poly A DNA Tm, ° C.” value is 60.9 °C and 60.8 °C.
